The source made the active and inactive calls. The rule behind the calls is not given here.

In test [1] the target is T1, Nuclear factor erythroid 2-related factor 2 (Homo sapiens) (UniProt Q16236).
T1 sequence (whole entry): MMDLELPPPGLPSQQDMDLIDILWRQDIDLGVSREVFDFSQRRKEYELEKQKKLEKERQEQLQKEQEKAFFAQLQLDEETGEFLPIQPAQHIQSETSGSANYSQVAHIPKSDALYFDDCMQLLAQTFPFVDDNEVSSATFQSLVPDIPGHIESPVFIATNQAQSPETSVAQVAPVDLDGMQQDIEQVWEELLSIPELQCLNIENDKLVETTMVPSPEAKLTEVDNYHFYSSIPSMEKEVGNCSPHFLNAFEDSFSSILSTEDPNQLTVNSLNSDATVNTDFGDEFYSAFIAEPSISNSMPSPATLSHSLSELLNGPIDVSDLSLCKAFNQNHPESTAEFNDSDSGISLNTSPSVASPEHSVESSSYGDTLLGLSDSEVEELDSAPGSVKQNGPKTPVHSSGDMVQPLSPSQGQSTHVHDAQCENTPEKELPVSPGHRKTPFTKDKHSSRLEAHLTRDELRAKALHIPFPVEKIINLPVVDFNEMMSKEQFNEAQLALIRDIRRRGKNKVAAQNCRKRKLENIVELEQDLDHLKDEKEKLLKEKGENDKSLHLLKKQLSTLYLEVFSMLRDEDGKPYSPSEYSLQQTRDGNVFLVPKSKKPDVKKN
Kind of test: Induction of NRF2-mediated ARE enhancer activity in hormone-sensitive human LNCaP cells transfected with pGL3-ARE-TK-luc at 5 uM after 24 hrs by luciferase assay relative to control. The class given is functional, cell-based.

The subject of test [2] is LNCaP. Put plainly: Decrease in cyclin D1 expression in human LNCAP cells at 5 uM after 48 hrs by Western blotting. The class given is functional, cell-based.
Test [3] concerns the target T1, Nuclear factor erythroid 2-related factor 2 (Homo sapiens). Put plainly: Increase of NRF2-mediated HO-1 expression in human LNCaP cells at 5 uM after 24 hrs by Western blotting. Format: functional, cell-based.
Test [4] shares this target. Kind of test: Increase of NRF2-mediated HO-1 expression in human LNCaP cells at 5 uM by Western blotting. To be noted: TDE = time-dependent effect. Format: functional, cell-based.
Test [5] shares this target. Put plainly: Increase of NRF2-mediated HO-1 expression in hormone-refractory human DU145 cells at 5 uM after 24 hrs by Western blotting. The class given is functional, cell-based. To be noted: DU-145. On the technique in general: Immunoblotting shows a protein as a band on a membrane.
The test system of test [6] is LNCaP. Put plainly: Effect on ERK phosphorylation in human LNCAP cells. Format: cell-based.
Test [7] concerns LNCaP. Put plainly: Antioxidant activity in human LNCAP cells assessed as decrease in intracellular ROS level at 5 uM after 12 hrs by fluorescence microplate reader assay. Format: functional, cell-based.
Test [8] concerns the target T1, Nuclear factor erythroid 2-related factor 2 (Homo sapiens). Put plainly: Increase of NRF2-mediated HO-1 expression in hormone-refractory human MDA-MB-231 cells after 24 hrs by Western blotting. Format: functional, cell-based.
Test [9] addresses c-Jun N-terminal kinase, JNK (Homo sapiens) (UniProt P45983+P53779+P45984). Kind of test: Effect on JNK phosphorylation in human LNCAP cells. Format: cell-based.
The target of test [10] is T1, Nuclear factor erythroid 2-related factor 2 (Homo sapiens). Put plainly: Increase of NRF2-mediated HO-1 expression in human LNCaP cells after 24 hrs by Western blotting. Format: functional, cell-based.
Test [11] concerns LNCaP. Put plainly: Growth inhibition of human LNCAP cells at 5 uM after 48 hrs by trypan blue dye exclusion assay in presence of 5 uM HO-1 inhibitor Zn-protoporphyrin. The class given is functional, cell-based.
The subject of test [12] is LNCaP. Put plainly: Induction of NRF2 dominant-negative mutant-mediated ARE enhancer activity in human LNCaP cells transfected with pGL3-ARE-TK-luc at 5 uM after 24 hrs by luciferase assay relative to control. The class given is cell-based.
The test system of test [13] is LNCaP. Kind of test: Growth inhibition of human LNCAP cells transfected with HO-1 siRNA at 5 uM after 72 hrs by trypan blue dye exclusion assay. The class given is functional, cell-based.
The target in test [14] is T1, Nuclear factor erythroid 2-related factor 2 (Homo sapiens). Kind of test: Induction of nuclear translocation of NRF2 in human LNCaP cells at 5 uM after 6 hrs by Western blotting. The class given is functional, cell-based.
For test [15] the target is unchanged. Kind of test: Increase of NRF2-mediated NQO-1 expression in hormone-refractory human DU145 cells at 5 uM after 24 hrs by Western blotting. The class given is functional, cell-based. Conditions: DU-145.
Test [16] shares this target. Kind of test: Increase of NRF2-mediated NQO-1 expression in human LNCaP cells at 5 uM after 24 hrs by Western blotting. Format: functional, cell-based.
Test [17] has the same target. Put plainly: Induction of NRF2-mediated ARE enhancer activity in hormone-refractory human PC3 cells transfected with pGL3-ARE-TK-luc at 5 uM after 24 hrs by luciferase assay relative to control. The class given is functional, cell-based. To be noted: PC-3.
Test [18] relates to LNCaP. Put plainly: Induction of apoptosis in human LNCAP cells at 5 uM by Hoechst 33342 staining. The class given is functional, cell-based.
For test [19], the target named is T1, Nuclear factor erythroid 2-related factor 2 (Homo sapiens). Put plainly: Induction of nuclear translocation of NRF2 in human LNCaP cells at 5 uM after 0.5 hrs by Western blotting. Format: functional, cell-based.
The target of test [20] is RAC-alpha serine/threonine-protein kinase (Homo sapiens) (UniProt P31749). Put plainly: Effect on c-Akt phosphorylation in human LNCAP cells. Format: cell-based.
Sequence of RAC-alpha serine/threonine-protein kinase (Homo sapiens) (P31749 whole entry): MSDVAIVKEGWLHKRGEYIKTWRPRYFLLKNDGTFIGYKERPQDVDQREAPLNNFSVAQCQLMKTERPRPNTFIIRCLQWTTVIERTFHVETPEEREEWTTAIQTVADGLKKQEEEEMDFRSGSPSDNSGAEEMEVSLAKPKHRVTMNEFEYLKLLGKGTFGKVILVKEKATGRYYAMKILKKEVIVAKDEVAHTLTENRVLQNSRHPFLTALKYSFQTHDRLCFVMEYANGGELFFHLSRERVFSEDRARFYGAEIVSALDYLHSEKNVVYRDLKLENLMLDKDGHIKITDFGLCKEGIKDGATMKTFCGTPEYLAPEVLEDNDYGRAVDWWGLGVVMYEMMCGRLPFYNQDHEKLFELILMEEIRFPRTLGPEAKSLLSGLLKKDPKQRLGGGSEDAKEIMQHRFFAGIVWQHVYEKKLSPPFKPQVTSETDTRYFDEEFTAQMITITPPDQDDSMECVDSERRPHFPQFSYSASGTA
In test [21] the test system is LNCaP. Kind of test: Induction of morphological changes in human LNCAP cells assessed as appearance of flattened and enlarged cells at 5 uM after 24 to 48 hrs. The class given is functional, cell-based.
In test [22] the target is T1, Nuclear factor erythroid 2-related factor 2 (Homo sapiens). Put plainly: Increase of NRF2-mediated HO-1 expression in hormone-refractory human PC3 cells at 5 uM after 24 hrs by Western blotting. To be noted: PC-3. The class given is functional, cell-based.
For test [23] the target is unchanged. Kind of test: Induction of NRF2-mediated ARE enhancer activity in hormone-refractory human DU145 cells transfected with pGL3-ARE-TK-luc at 5 uM after 24 hrs by luciferase assay relative to control. Format: functional, cell-based. To be noted: DU-145.
Test [24] concerns LNCaP. Put plainly: Antioxidant activity in human LNCAP cells assessed as decrease in intracellular ROS level at 5 uM after 1 hr by fluorescence microplate reader assay. Format: functional, cell-based.
Test [25] relates to LNCaP. Put plainly: Effect on p21 expression in human LNCAP cells at 5 uM after 48 hrs by Western blotting. The class given is functional, cell-based.
Test [26] concerns the target T1, Nuclear factor erythroid 2-related factor 2 (Homo sapiens). Put plainly: Increase of NRF2-mediated NQO-1 expression in hormone-refractory human PC3 cells at 5 uM after 24 hrs by Western blotting. Conditions: PC-3. Format: functional, cell-based.
For test [27], the system named is LNCaP. Put plainly: Antioxidant activity in human LNCAP cells assessed as decrease in intracellular ROS level at 5 uM after 5 mins by fluorescence microplate reader assay. Format: functional, cell-based.
In test [28] the target is T1, Nuclear factor erythroid 2-related factor 2 (Homo sapiens). Kind of test: Increase of NRF2-mediated HO-1 expression in hormone-refractory human MCF7 cells after 24 hrs by Western blotting. The class given is functional, cell-based.
Test [29] concerns LNCaP. Kind of test: Cytotoxicity against human LNCAP cells assessed as reduction of cells count at 5 uM after 24 to 48 hrs by trypan blue dye exclusion assay. The class given is functional, cell-based.
Test [30] deals with LNCaP. Put plainly: Decrease in cyclin B1 expression in human LNCAP cells at 5 uM after 48 hrs by Western blotting. Format: functional, cell-based.
Test [31] concerns the target MAP kinase p38 (Homo sapiens) (UniProt O15264+Q15759+Q16539+P53778). Kind of test: Effect on p38 phosphorylation in human LNCAP cells. Format: cell-based.
The target of test [32] is T1, Nuclear factor erythroid 2-related factor 2 (Homo sapiens). Put plainly: Induction of nuclear translocation of NRF2 in human LNCaP cells at 5 uM after 1 hr by Western blotting. The class given is functional, cell-based.

Take `C[C@@H](O[Si](C)(C)C(C)(C)C)[C@H]1C(=O)N2/C(=N/c3ccccc3)[Se]/C(=C/I)C[C@H]12`: in test [1], the outcome was Active.

For the molecule `C[C@@H](O[Si](C)(C)C(C)(C)C)[C@H]1C(=O)N2/C(=N/Cc3ccccc3)[Se]/C(=C/I)C[C@H]12`, the inhibition entry in the test with LNCaP [2], in the test with LNCaP [7], with LNCaP [24], in the test on LNCaP [27] and in the test on LNCaP [30] was “Active” throughout. The result in [3], in [5], in [8], in test [14], in [15] and in test [16] was Active. Moreover, the result (in test [19]; in the test with LNCaP [21]; in [22]; in test [26]; in [28]; in the test with LNCaP [29]) was Active. Besides, the results for the Activity entry in test [4] and in [10] were “tde” and “Dose-dependent effect”, respectively. Also, the outcome (in the test with LNCaP [6]; in test [9]; in the test with LNCaP [12]; with LNCaP [18]; in test [20]; with LNCaP [25]) was inactive. The outcome in test [31] was inactive. The figures for the fold change (FC) in [1], in [17] and in test [23] were 6, < 2 and < 2, respectively. The “growth inhibition (GI)” value in the test with LNCaP [11] and in the test on LNCaP [13] was “Active” throughout.

For the molecule `C[C@@H](O[Si](C)(C)C(C)(C)C)[C@H]1C(=O)N2/C(=N/c3ccc4ccccc4c3)[Se]/C(=C/I)C[C@H]12`, the outcome in [1] was Active.

As for `C[C@@H](O[Si](C)(C)C(C)(C)C)[C@H]1C(=O)N2/C(=N/C3CCCCC3)[Se]/C(=C/I)C[C@H]12`, the inhibition entry in the test on LNCaP [2], in the test on LNCaP [7], in the test with LNCaP [24], in the test with LNCaP [27] and with LNCaP [30] was “Active” throughout. The result in [3], in test [5], in test [8], in [14], in test [15] and in test [16] was Active. For the same molecule, the result (in test [32]; with LNCaP [21]; in test [22]; in [26]; in [28]; in the test with LNCaP [29]) was Active. Also, the Activity entry in test [4] was “tde”; in test [10], “Dose-dependent effect”. In addition, the outcome (in the test on LNCaP [6]; in test [9]; with LNCaP [12]; with LNCaP [18]; in [20]; in the test with LNCaP [25]) was inactive. Also, in [31], the result was inactive. Moreover, the results for the fold change (FC) in test [1], in test [17] and in test [23] were 6, < 2 and < 2, respectively. Besides, the “growth inhibition (GI)” value in the test with LNCaP [11] and in the test on LNCaP [13] was “Active” each time.

Values taken from ChEMBL document CHEMBL1250530, “Identification of organoselenium compounds that possess chemopreventive properties in human prostate cancer LNCaP cells” (Bioorg Med Chem, 2010).
